Experimental findings from patent US20180328927A1 (HUNAN SKYWORLD BIOTECHNOLOGIES CO., priority 2015, published 2018) are described below.

Structures are written as SMILES. Entries after “also recorded” stand apart in the source; their conditions may differ. Read-outs that look alike come from different tables or passages of the source.

Assay [1] relates to anti-SAM monoclonal antibodies. Nature of the assay: Cross-reaction of anti-SAM antibody with MAT substrates ATP and L-Met, direct competitive ELISA. It counts as binding. The conditions noted are these: for Cross-reaction (%): relative to SAM standard at 50% inhibition. The procedure:
(A) Antigen-coating method: A PLL or BSA-conjugated SAM antigen is pre-coated on a solid-phase ELISA micro-titer plate that is then blocked with BSA solution. The antigen to be detected (SAM sample), then HRP-conjugated anti-SAM antibody are added and incubated at the same time. The antigen to be tested and the coating antigen compete for the enzyme-labeled antibody. After incubation and washing, the enzyme-labeled antibody bound to the coating antigen is retained, and the enzyme-labeled antibody that binds to the antigen to be detected (free antigen) is washed away. Finally, adding TMB substrate to the reaction wells. The final coloration result is inversely proportional to the amount of the antigen to be detected, that is, the higher the OD450 value, the lower the SAM concentration in the sample to be measured. In the course of the experiment, a series of SAM solutions with a known concentration were used as standards in the same ELISA micro-titer plate for the standard curve of the assay. Based on the standard curve, an equation showing how OD450 readings and values of the known standard concentration are related can be obtained. Put the sample OD450 into the equation to get the corresponding concentration value of the sample.
The ELISA plates were coated with PLL SAM antigen. […] The HRP-anti-SAM antibody was diluted at 1:25000 with HRP antibody diluent. Added 30 μl standards and cross-reacting substances ATP and Met per well, and 70 μl diluted HRP-anti-SAM antibody per well and incubated at 37° C. for 1 h. Washed the plate, added 100 μl TMB at 37° C. for 15 min, added 50 μl stop solution and read OD450.
A/A0; reaction rate (A0 is the OD450 reading at 0 nM, A represents any OD450 reading of wells that have different amount of free small molecule antigen competing.)
A general note: ELISA stands for enzyme-linked immunosorbent assay.

The target in a further assay is T1, MAT-II in HepG2 cells (Homo sapiens, UniProt P31153).
T1 construct: endogenous in cells; host or cells: HepG2
Nature of the assay: Intracellular MAT activity in HepG2 cells after GSNO pretreatment and Met. It counts as cell-based.

Another assay concerns MAT-III/I in L02 cells. Nature of the assay: Intracellular MAT activity in L02 cells after GSNO pretreatment and Met. The class given is cell-based, human.
The target of assay [2] is methionine adenosyltransferase (MAT) (Escherichia coli, UniProt P0A817).
[3] abbreviates: cross-reacting substance 120 nM.
The mark [4] stands for this setting: cross-reacting substance 1200 nM.
Setting [5] is: cross-reacting substance 3960 nM.
The mark [6] stands for this setting: cross-reacting substance 12000 nM.

As to `Nc1ncnc2c1ncn2[C@@H]1O[C@H](COP(=O)(O)OP(=O)(O)OP(=O)(O)O)[C@@H](O)[C@H]1O` [ATP, adenosine triphosphate], the “A/A0 (reaction rate)” value in assay [1] (setting [3]) was 1.051; in assay [1] (setting [4]), 1.001; in assay [1] (setting [5]), 1.095; in assay [1] (setting [6]), 1.086. The “Cross-reaction (%)” value in assay [1] is under 1%.

As for `N[C@@H](CCC(=O)N[C@@H](CSN=O)C(=O)NCC(=O)O)C(=O)O` [GSNO, nitrosoglutathione], the “effect of GSNO nitrosylation on MAT-II” value at MAT-II in HepG2 cells (1 mM GSNO pretreatment) is “minor effect on MAT-II; also recorded: no inhibitory effect on MAT-II”. The “effect of GSNO nitrosylation on MAT-III/I” value in the assay with MAT-III/I in L02 cells (1 mM GSNO pretreatment, Met stimulation) is listed as “inhibition of MAT-III or MAT-I after nitrosation of GSNO was obvious; also recorded: inhibitory effect of GSNO nitrosylation on MAT-III/I was obvious”. The “effect of GSNO nitrosylation on MAT activity” value in the assay with MAT-III/I in L02 cells (in the presence of 2 mM Met) is “remained obvious”.

`[Cl-].[K+]` [KCl]: the A/A0 in assay [2] (KCl 50 mM, 20 mM MgSO4, 100 mM Tris, ATP 5 mM, Met 4 mM, MAT 1 mg/ml) is reported as 0.1983; in assay [2] (KCl 100 mM), 0.1938; in assay [2] (KCl 150 mM), 0.1911; in assay [2] (KCl 200 mM), 0.1973; in assay [2] (KCl 250 mM), 0.2079; in assay [2] (KCl 300 mM), 0.2106. This compound also yielded an A/A0 in assay [2] (KCl 400 mM) of 0.1995.

Regarding `CSCC[C@H](N)C(=O)O` [Met, methionine], the “A/A0 (reaction rate)” value in assay [1] (setting [3]) is recorded as 1.042; in assay [1] (setting [4]), 1.046; in assay [1] (setting [5]), 1.012; in assay [1] (setting [6]), 1.095. Moreover, the “Cross-reaction (%)” value in assay [1] is reported as under 1%. Further, the “SAM (nM) synthesized by MAT” value on MAT-II in HepG2 cells (0.5 mM Met 24 h, normalized to 2×10^7 cells, 0 mM Met control 247.4761) came to 222.3993 nM; on MAT-II in HepG2 cells (2 mM Met 24 h), 174.3621 nM; in the assay on MAT-III/I in L02 cells (0.5 mM Met 24 h, normalized to 2×10^7 cells, 0 mM Met control 274.4578162), 377.7 nM; with MAT-III/I in L02 cells (2 mM Met 24 h), 236.4 nM. In addition, at MAT-II in HepG2 cells (Met 0.5 and 2 mM), the “effect on MAT-II activity” value is “the higher the Met concentration, the lower the activity of MAT-II; also recorded: inhibits MAT-II activity”. The “effect on MAT-III/I activity” value in the assay on MAT-III/I in L02 cells (500 μM Met, 24 hours) was “stimulated the activity of MAT-III or MAT-I; also recorded: stimulated MAT-III/I activity”; in the assay with MAT-III/I in L02 cells (2 mM Met) it was “No stimulatory effects; also recorded: stimulation was not significant”.

On to `O=S(=O)([O-])[O-].[Mg+2]` [MgSO4], for which the A/A0 is 0.2199 in assay [2] (MgSO4 4 mM, 250 mM KCl, 100 mM Tris, ATP 5 mM, Met 4 mM, MAT 1 mg/ml); 0.2047 in assay [2] (MgSO4 10 mM); 0.1867 in assay [2] (MgSO4 30 mM); 0.1766 in assay [2] (MgSO4 50 mM); 0.1734 in assay [2] (MgSO4 70 mM); 0.1724 in assay [2] (MgSO4 100 mM). The “decrease of A/A0” value in assay [2] (MgSO4 from 4 mM to 100 mM) amounted to 0.475.

As for `NC(CO)(CO)CO` [Tris, tris (hydroxymethyl) aminomethane], the A/A0 turned out to be 0.4981 in assay [2] (Tris 20 mM, after optimal Mg2+ and K+ were determined); 0.2567 in assay [2] (Tris 50 mM); 0.2168 in assay [2] (Tris 100 mM); 0.2472 in assay [2] (Tris 200 mM).
